In ChEMBL document CHEMBL1125440, “Synthesis and antiviral activity of acyclic nucleosides with a 3(S),5-dihydroxypentyl or 4(R)-methoxy-3(S),5-dihydroxypentyl side chain” (1992):
In brackets after ≈: the same amount, converted by molar mass.

Legend:
E6SM [1] = assay: Minimum inhibitory concentration (MIC) required to reduce VMW 1837 strain of TK-HSV-1 induced cytopathogenicity by 50% in E6SM cells; type: functional; settings: Homo sapiens
E6SM [2] = assay: Minimum cytotoxic concentration (MCC) required to cause a microscopically detectable alteration of normal cell morphology against E6SM cells; type: functional; settings: Homo sapiens
E6SM [3] = assay: Minimum inhibitory concentration (MIC) required to reduce F strain of HSV-1 induced cytopathogenicity by 50% in E6SM cells; type: functional; settings: Homo sapiens
E6SM [4] = assay: Minimum inhibitory concentration (MIC) required to reduce KOS strain of HSV-1 induced cytopathogenicity by 50% in E6SM cells; type: functional; settings: Homo sapiens
E6SM [5] = assay: Minimum inhibitory concentration (MIC) required to reduce B2006 strain of TK-HSV-1 induced cytopathogenicity by 50% in E6SM cells; type: functional; settings: Homo sapiens
E6SM [6] = assay: Minimum inhibitory concentration (MIC) required to reduce McIntyre strain of HSV-1 induced cytopathogenicity by 50% in E6SM cells; type: functional; settings: Homo sapiens
E6SM [7] = assay: (§1) Compounds was evaluated for its inhibitory effect on cytopathogenicity of vesicular stomatitis virus (VSV) in E6SM cells; type: functional; settings: Homo sapiens
E6SM [8] = assay: Minimum inhibitory concentration (MIC) required to reduce Lyons strain of HSV-2 induced cytopathogenicity by 50% in E6SM cells; type: functional; settings: Homo sapiens
E6SM [9] = assay: Minimum inhibitory concentration (MIC) required to reduce G strain of HSV-2 induced cytopathogenicity by 50% in E6SM cells; type: functional; settings: Homo sapiens
E6SM [10] = assay: Minimum inhibitory concentration (MIC) required to reduce 196 strain of HSV-2 induced cytopathogenicity by 50% in E6SM cells; type: functional; settings: Homo sapiens
E6SM [11] = assay: (§2) Compounds was evaluated for its inhibitory effect on cytopathogenicity of vaccinia virus (VV) in E6SM cells; type: functional; settings: Homo sapiens
E6SM [12] = assay: as §2; type: functional, Homo sapiens
E6SM [13] = assay: as §1; type: functional, Homo sapiens

Compound | MIC (E6SM [1]) | MCC (E6SM [2]) | MIC (E6SM [3]) | MIC (E6SM [4]) | MIC (E6SM [5]) | MIC (E6SM [6]) | MIC (E6SM [7]) | MIC (E6SM [8]) | MIC (E6SM [9]) | MIC (E6SM [10]) | MIC (E6SM [11]) | VV (E6SM [12]) | VSV (E6SM [13])
Nc1nc(O)c2ncn(CC[C@H](O)CCO)c2n1 | > 400 mg/L | > 400 µg/mL | 0.4 mg/L (≈ 1.58 µM) | 0.4 mg/L (≈ 1.58 µM) | > 400 mg/L | 0.6 mg/L (≈ 2.37 µM) | > 400 mg/L | 5 mg/L (≈ 19.7 µM) | 4 mg/L (≈ 15.8 µM) | 20 mg/L (≈ 79 µM) | > 400 mg/L | – | –
Nc1ncnc2c1ncn2C[C@H](O)CO [(S)-DHPA] | > 400 mg/L | > 400 µg/mL | 70 mg/L (≈ 335 µM) | 300 mg/L (≈ 1430 µM) | 300 mg/L (≈ 1430 µM) | 70 mg/L (≈ 335 µM) | 70 mg/L (≈ 335 µM) | 250 mg/L (≈ 1190 µM) | 300 mg/L (≈ 1430 µM) | 300 mg/L (≈ 1430 µM) | 70 mg/L (≈ 335 µM) | – | –
Nc1nc2c(ncn2COCCO)c(=O)[nH]1 [ACYCLOVIR] | 10 mg/L (≈ 44.4 µM) | > 400 µg/mL | 0.04 mg/L (≈ 0.178 µM) | 0.07 mg/L (≈ 0.311 µM) | 70 mg/L (≈ 311 µM) | 0.02 mg/L (≈ 0.0888 µM) | – | 0.02 mg/L (≈ 0.0888 µM) | 0.04 mg/L (≈ 0.178 µM) | 0.015 mg/L (≈ 0.0666 µM) | – | >400 | >400
